Test results published in patent US9440957B2, “Compounds and compositions for modulating EGFR Activity” (Novartis AG, priority 2012, dated 2016).
Where two headings read alike, the source gives them in different places.

Legend:
[1] = target: T1, EGFR(L858R/T790M) (Homo sapiens, UniProt P00533, L858R/T790M); assay: EGFR biochemical assay (HTRF), IC50 determinations
T1 construct: purchased from Carna (GST-a.a. 669-1210)
Method: All EGFR biochemical assays were carried out by HTRF method. […] The substrate peptide Biotin-TK-peptide was purchased from Cis-Bio. […] All reactions were carried out at room temperature in white ProxiPlate™ 384-well Plus plates (PerkinElmer) and were quenched with 5 μL of 0.2 M EDTA at 60 min. Five L of the detection reagents (2.5 ng PT66K and 0.05 μg SAXL per well) were added, the plates were incubated at room temperature for 1 h and then read in EnVision reader. […] For no-preincubation condition, the compounds were added to the assay solution containing ATP and peptide, and the reaction was initiated by addition of enzyme. For pre-incubation conditions, the compounds were added to the assay solution containing enzyme and peptide, and pre-incubated at room temperature for desired period of time, then the reaction was initiated by addition of ATP.

[2] = target: human EGFR WT (NIH/3T3 cells, EGF-induced) (Homo sapiens, UniProt P00533); assay: EGFR target modulation in engineered NIH/3T3 cell lines (phospho-EGFR Y1068 AlphaLISA), EGFR WT; format: cell-based; conditions: engineered NIH/3T3 cells, read-out: NIH3T3 IC50 (μM) EGFR (WT)
Method: (§1) EGFR Target Modulation in Engineered NIH/3T3 Cell Lines Tissue Culture.
(§2) The cells were harvested with 0.05% Trypsin/EDTA (Hyclone #SH30236.01), re-suspended in 5% FBS/DMEM Pen/Strep without Puromycin and plated at 9,000 cells per well in 50 μl of media in a 384-well black plate with clear bottoms (Greiner #789068G). The cells were allowed to incubate overnight in a 37° C., 5% CO2 humidified tissue culture incubator. A 12-point test compound curve was prepared by serial diluting a 10 μM stock 1:3 in DMSO in a 384-well compound plate (Greiner #789201L). The serial diluted compounds were transferred to the plate containing cells by using a 50 nl Pin Head device (Perkin Elmer) and the cells were placed back in the incubator for 3 hours. Only the EGFR WT-expressing cells were induced with 50 ng/ml EGF (Preprotech #AF-100-15) for 5 minutes before lysis. […] The plates were shaken at 4° C. for 5 minutes with foil top at maximum speed. […] The plates were sealed with a foil top and frozen at −80° C. and thawed when needed.
(§3) The frozen aliquots were thawed and briefly centrifuged. All antibodies and beads were diluted in 1× AlphaLISA HiBlock Buffer (PE #AL004C). […] Goat anti-total EGFR (R&D Systems #AF231) was added and allowed to equilibrate for 1 hour at room temperature at 1 nM final concentration.
(§4) With these parameters, the IC50's for each compound in each cell line was calculated using non-linear curve fitting analysis.

[3] = target: human EGFR L858R (NIH/3T3 cells) (Homo sapiens, UniProt P00533, L858R); assay: EGFR target modulation in engineered NIH/3T3 cell lines (phospho-EGFR Y1068 AlphaLISA), EGFR L858R; format: cell-based; conditions: engineered NIH/3T3 cells, read-out: NIH3T3 IC50 (μM) EGFR (L858R)
Method: as §1, §2, §3, §4

[4] = target: human EGFR L858R/T790M (NIH/3T3 cells) (Homo sapiens, UniProt P00533, L858R/T790M); assay: EGFR target modulation in engineered NIH/3T3 cell lines (phospho-EGFR Y1068 AlphaLISA), EGFR L858R/T790M; format: cell-based; conditions: engineered NIH/3T3 cells, read-out: NIH3T3 IC50 (μM) EGFR (L858R/T790M)
Method: as §1, §2, §3, §4

[5] = EGFR (L858R/T790M) with 90 min pre-incubation, read-out: IC50 (μM) Column B
[6] = EGFR (L858R/T790M) with no pre-incubation, read-out: IC50 (μM) Column A

human EGFR L858R/T790M (NIH/3T3 cells), sequence (P00533 25-1210 T790M/L858R): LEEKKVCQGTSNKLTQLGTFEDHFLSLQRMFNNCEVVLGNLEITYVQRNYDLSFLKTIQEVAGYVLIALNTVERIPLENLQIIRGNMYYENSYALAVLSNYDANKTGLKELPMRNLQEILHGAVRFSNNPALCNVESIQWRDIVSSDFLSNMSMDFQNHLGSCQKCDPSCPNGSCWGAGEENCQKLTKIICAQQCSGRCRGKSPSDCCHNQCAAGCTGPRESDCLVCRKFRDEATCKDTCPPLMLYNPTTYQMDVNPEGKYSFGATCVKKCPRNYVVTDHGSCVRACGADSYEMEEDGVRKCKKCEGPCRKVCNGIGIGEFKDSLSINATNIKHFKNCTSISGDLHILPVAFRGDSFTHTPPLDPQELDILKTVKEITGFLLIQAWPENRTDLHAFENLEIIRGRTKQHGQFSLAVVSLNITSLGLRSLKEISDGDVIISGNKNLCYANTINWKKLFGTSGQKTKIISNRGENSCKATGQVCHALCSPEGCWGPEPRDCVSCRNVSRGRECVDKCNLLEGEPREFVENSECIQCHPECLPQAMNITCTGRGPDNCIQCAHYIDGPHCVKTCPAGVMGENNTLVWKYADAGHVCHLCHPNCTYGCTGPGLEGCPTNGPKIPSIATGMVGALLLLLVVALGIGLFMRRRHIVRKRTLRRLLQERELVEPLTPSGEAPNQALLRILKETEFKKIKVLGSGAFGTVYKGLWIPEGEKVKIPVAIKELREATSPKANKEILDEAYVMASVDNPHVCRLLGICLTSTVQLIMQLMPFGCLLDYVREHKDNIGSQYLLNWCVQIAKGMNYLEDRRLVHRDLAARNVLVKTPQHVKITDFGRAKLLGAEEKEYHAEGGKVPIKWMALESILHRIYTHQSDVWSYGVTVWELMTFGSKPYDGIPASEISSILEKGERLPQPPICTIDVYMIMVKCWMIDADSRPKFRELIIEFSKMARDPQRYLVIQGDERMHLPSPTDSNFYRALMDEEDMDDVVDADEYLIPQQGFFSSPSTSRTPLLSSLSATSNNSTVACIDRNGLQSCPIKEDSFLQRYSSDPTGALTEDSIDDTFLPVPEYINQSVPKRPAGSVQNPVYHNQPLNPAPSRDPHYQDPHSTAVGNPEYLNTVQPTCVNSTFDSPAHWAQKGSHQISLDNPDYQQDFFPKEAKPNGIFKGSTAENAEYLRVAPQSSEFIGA
human EGFR WT (NIH/3T3 cells, EGF-induced), sequence (P00533 25-1210): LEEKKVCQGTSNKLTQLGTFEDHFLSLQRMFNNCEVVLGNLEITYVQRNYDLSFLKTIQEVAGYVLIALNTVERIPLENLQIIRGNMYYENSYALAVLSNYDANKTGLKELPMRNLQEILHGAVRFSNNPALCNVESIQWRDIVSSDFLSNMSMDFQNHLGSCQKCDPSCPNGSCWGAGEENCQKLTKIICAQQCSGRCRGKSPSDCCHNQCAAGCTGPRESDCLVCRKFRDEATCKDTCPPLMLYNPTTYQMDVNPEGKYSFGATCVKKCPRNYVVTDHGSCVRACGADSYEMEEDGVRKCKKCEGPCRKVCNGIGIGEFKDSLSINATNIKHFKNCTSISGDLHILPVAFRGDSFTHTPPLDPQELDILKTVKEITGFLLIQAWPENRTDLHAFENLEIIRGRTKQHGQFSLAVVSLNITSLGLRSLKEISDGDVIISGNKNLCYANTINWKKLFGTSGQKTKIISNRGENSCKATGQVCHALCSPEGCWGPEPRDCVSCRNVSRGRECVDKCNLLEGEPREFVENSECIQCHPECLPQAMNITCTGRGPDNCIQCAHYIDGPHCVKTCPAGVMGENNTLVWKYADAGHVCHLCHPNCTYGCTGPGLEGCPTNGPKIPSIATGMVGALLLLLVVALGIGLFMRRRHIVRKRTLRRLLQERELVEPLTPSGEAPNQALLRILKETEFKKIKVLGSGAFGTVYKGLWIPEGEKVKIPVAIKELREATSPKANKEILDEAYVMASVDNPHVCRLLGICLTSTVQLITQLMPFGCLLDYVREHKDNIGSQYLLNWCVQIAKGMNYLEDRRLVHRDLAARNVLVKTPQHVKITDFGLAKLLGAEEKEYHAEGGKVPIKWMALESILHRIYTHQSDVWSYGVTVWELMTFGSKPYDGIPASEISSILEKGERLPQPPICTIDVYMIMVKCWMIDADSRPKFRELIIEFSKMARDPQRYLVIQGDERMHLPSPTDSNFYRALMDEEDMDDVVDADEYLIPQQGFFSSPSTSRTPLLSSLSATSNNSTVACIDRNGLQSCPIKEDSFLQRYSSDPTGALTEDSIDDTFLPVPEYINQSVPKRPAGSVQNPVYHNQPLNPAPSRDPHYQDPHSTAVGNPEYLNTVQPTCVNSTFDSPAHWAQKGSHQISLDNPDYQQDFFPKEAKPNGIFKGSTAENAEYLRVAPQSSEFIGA
human EGFR L858R (NIH/3T3 cells), sequence (P00533 25-1210 L858R): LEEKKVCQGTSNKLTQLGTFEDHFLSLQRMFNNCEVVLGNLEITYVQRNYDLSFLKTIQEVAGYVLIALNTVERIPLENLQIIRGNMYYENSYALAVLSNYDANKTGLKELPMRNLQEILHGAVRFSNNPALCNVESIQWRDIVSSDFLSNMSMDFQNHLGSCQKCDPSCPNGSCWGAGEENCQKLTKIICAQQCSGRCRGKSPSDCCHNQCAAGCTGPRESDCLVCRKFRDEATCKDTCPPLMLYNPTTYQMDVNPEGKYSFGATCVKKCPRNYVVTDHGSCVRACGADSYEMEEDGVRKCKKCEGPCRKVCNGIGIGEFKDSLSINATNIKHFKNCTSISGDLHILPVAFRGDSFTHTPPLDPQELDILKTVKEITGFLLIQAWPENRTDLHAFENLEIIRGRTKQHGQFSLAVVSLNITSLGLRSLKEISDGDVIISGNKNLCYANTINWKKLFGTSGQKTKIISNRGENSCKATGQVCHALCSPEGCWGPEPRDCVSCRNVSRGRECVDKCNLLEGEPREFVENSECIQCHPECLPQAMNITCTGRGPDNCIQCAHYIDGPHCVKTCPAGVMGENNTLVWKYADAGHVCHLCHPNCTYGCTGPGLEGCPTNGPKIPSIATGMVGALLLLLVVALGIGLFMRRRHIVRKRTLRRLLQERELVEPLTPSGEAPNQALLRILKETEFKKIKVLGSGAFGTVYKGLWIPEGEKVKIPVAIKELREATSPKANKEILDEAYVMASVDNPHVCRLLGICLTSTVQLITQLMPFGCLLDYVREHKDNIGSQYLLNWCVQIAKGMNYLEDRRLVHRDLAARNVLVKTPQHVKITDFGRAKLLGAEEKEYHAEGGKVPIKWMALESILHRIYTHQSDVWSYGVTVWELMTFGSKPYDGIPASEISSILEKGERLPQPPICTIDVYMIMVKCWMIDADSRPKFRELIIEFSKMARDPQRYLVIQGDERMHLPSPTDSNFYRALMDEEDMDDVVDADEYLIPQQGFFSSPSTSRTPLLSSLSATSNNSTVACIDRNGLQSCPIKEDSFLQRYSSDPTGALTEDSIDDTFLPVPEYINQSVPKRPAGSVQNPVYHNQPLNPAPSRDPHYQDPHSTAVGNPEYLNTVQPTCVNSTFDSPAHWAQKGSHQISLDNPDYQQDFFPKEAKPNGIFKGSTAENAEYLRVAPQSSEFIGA
T1 sequence (P00533 669-1210 T790M/L858R): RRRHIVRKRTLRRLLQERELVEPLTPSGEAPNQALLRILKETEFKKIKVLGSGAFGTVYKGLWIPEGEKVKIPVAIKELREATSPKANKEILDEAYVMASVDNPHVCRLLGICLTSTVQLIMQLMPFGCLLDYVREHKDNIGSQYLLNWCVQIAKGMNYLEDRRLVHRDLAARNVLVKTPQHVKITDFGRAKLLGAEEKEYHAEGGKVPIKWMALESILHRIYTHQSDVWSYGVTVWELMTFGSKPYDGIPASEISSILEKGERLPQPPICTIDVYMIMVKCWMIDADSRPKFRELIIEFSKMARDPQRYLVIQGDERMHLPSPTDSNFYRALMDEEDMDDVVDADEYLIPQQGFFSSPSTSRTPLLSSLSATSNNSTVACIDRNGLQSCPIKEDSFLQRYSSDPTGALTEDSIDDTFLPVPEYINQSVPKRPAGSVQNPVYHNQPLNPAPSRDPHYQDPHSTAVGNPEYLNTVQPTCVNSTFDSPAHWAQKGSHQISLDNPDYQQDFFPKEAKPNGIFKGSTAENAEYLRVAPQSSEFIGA

IC50 [1, 5] [µM] | IC50 [1, 6] [µM] | IC50 [2] [µM] | IC50 [3] [µM] | IC50 [4] [µM] | SMILES
0.071 | 0.41 |  |  |  | C=CC(=O)N1CCC[C@H](n2c(NC(=O)c3cccc(C(F)(F)F)c3)nc3cc(C)ccc32)C1 [4, 21-5]
0.002 | 0.1 |  |  |  | C=CC(=O)N1CCC[C@@H](n2c(NC(=O)c3cccc(C(F)(F)F)c3)nc3cc(C)ccc32)C1 [17-105, 21-6]
0.137 | 7 | > 10 | 5.5 | 0.37 | C=CC(=O)N1CCCC(n2c(NC(=O)c3cccc(C(F)(F)F)c3)nc3cnccc32)C1 (stereo not shown) [Example 17-8]
0.218 | 4.1 | > 10 | 8.6 | 0.194 | C=CC(=O)N1CCCC(n2c(NC(=O)c3cccc(C(F)(F)F)c3)nc3ccncc32)C1 (stereo not shown) [Example 17-9]
< 0.001 | 0.014 | 1.65 | 0.007 | 0.003 | C=CC(=O)N1CCCCC(n2c(NC(=O)c3cccc(C(F)(F)F)c3)nc3cccc(C)c32)C1 (stereo not shown) [Example 17-10]
< 0.001 | 0.006 | 0.43 | 0.008 | 0.001 | C=CC(=O)N1CCCC[C@@H](n2c(NC(=O)c3cccc(C(F)(F)F)c3)nc3ccccc32)C1 [Example 17-13]
0.4 | 0.204 |  |  |  | C=CC(=O)N1CCC(n2c(NC(=O)c3cccc(C(F)(F)F)c3)nc3cc(C)ccc32)CC1 [Example 17-97]
0.058 | 0.84 |  |  |  | C=CC(=O)N1CCC(n2c(NC(=O)c3cccc(C(F)(F)F)c3)nc3cc(C)ccc32)C1 (stereo not shown) [Example 17-98]
0.097 | 1.22 |  |  |  | C=CC(=O)N1CC(n2c(NC(=O)c3cccc(C(F)(F)F)c3)nc3cc(C)ccc32)C1 [Example 17-99]
 |  |  | 0.34 | 0.026 | C=CC(=O)N1CCCC(n2c(NC(=O)c3cccc(C(F)(F)F)c3)nc3cc(C)ccc32)C1 (stereo not shown) [Example 17-100]
0.38 | 0.32 |  |  |  | C=CC(=O)N1CCCC(n2c(NC(=O)c3cccc(C(F)(F)F)c3)nc3cc(C)ccc32)CC1 (stereo not shown) [Example 17-107]

More lines, now with the values behind:

SMILES | IC50 [1, 5] [µM] | IC50 [1, 6] [µM] | IC50 [2] [µM] | IC50 [3] [µM] | IC50 [4] [µM]
Cc1cccc2nc(NC(=O)c3ccnc(C(F)(F)F)c3)n([C@H]3CCCCN(C(=O)/C=C/CN(C)C)C3)c12 (single isomer, unassigned) [Example 21-1] | 0.012 | 0.171 | > 10 | 2.23 | 0.12
C=CC(=O)N1CCCC[C@H](n2c(NC(=O)c3cccc(C(F)(F)F)c3)nc3cccc(C)c32)C1 (single isomer, unassigned) [Example 21-3] | 0.098 | 0.7 | > 10 | 2.2 | 0.45
C=CC(=O)N1CCOCC(n2c(NC(=O)c3cccc(C(F)(F)F)c3)nc3cccc(C)c32)C1 (single isomer, unassigned) [Example 21-7A] | 0.56 | 2.01 | > 10 | 3.2 | 0.49
C=CC(=O)N1CCOCC(n2c(NC(=O)c3cccc(C(F)(F)F)c3)nc3cccc(C)c32)C1 (single isomer, unassigned) [Example 21-7B] | < 0.001 | 0.008 | 0.65 | 0.012 | 0.002
Cc1ncc(C(=O)Nc2nc3cccc(C)c3n2C2CCCCN(C(=O)/C=C/CN(C)C)C2)s1 (single isomer, unassigned) [Example 21-8A] | 0.033 | 0.62 | 0.98 | 0.211 | 0.138
Cc1cccc2nc(NC(=O)c3ccnc(C(F)(F)F)c3)n([C@@H]3CCCCN(C(=O)/C=C/CN(C)C)C3)c12 [8, 21-2] | < 0.001 | < 0.001 |  |  | 
Cc1cc(C(=O)Nc2nc3cccc(Cl)c3n2[C@@H]2CCCCN(C(=O)/C=C/CN3CC[C@H](O)C3)C2)ccn1 [Example 3-7] | < 0.001 | 0.006 | 0.89 | 0.009 | 0.021
COC1CN(C/C=C/C(=O)N2CCCC[C@@H](n3c(NC(=O)c4ccnc(C)c4)nc4cccc(Cl)c43)C2)C1 [Example 3-14] | < 0.001 | 0.012 | 0.78 | 0.011 | 0.012
C=CS(=O)(=O)N1CCCCC(n2c(NC(=O)c3cccc(C(F)(F)F)c3)nc3cccc(C)c32)C1 (stereo not shown) [Example 10, N-(7-methyl-1-(1-(vinylsulfonyl)azepan-3-yl)-1H-benzo[d]imidazol-2-yl)-3-(trifluoromethyl)benzamide] | 0.009 | 0.39 | > 10 | 0.34 | 0.037
C=CC(=O)N1CCCCC(n2c(NC(=O)c3cccc(C(F)(F)F)c3)nc3cccc(CN4CCCC4)c32)C1 (stereo not shown) [Example 11, N-(1-(1-acryloyazepan-3-yl)-7-(pyrrolidin-1-ylmethyl)-1H-benzo[d]imidazol-2-yl)-3-(trifluoromethyl)benzamide] | < 0.001 | 0.012 | 0.12 | 0.002 | 0.002
Cc1cccc2nc(NC(=O)c3ccccc3F)n(C3CCCCN(C(=O)/C=C/CN(C)C)C3)c12 (stereo not shown) [Example 17-3] | < 0.001 | 0.026 | 0.86 | 0.034 | 0.015
Cc1cccc2nc(NC(=O)c3cnco3)n(C3CCCCN(C(=O)/C=C/CN(C)C)C3)c12 (stereo not shown) [Example 17-5] | 0.001 | 0.022 | 0.172 | 0.008 | 0.011
Cc1cccc2nc(NC(=O)c3cccc(C(F)(F)F)c3)n([C@H]3COCCN(C(=O)/C=C/CN(C)C)C3)c12 [Example 17-6] | 0.01 | 0.189 | 6 | 0.7 | 0.244
Cc1cccc2nc(NC(=O)c3cccc(C(F)(F)F)c3)n([C@@H]3COCCN(C(=O)/C=C/CN(C)C)C3)c12 [Example 17-7] | < 0.001 | 0.005 | 0.55 | 0.015 | 0.003
C=CC(=O)N1CCCCC(n2c(NC(=O)c3ccccc3)nc3cccc(C)c32)C1 (stereo not shown) [Example 17-11] | < 0.001 | < 0.001 | 1.54 | 0.015 | 0.002
C=CC(=O)N1CCOCC(n2c(NC(=O)c3cccc(C(F)(F)F)c3)nc3cccc(C)c32)C1 (stereo not shown) [Example 17-14] | 0.005 | 0.033 | 1.08 | 0.016 | 0.003
C=CC(=O)N1CCCC[C@@H](n2c(NC(=O)c3cccc(C(F)(F)F)c3)nc3cccc(Cl)c32)C1 [Example 17-18] | < 0.001 | 0.014 | 2.48 | 0.02 | 0.004
Cc1cccc2nc(NC(=O)c3cn4ccsc4n3)n(C3CCCCN(C(=O)/C=C/CN(C)C)C3)c12 (stereo not shown) [Example 17-51] | 0.048 | 1.95 |  | 0.47 | 0.65
Cc1cccc2nc(NC(=O)c3ccnc(-n4cnnn4)c3)n(C3CCCCN(C(=O)/C=C/CN(C)C)C3)c12 (stereo not shown) [Example 17-60] |  |  | 0.012 | 0.002 | 0.002
Cc1ncccc1C(=O)Nc1nc2cccc(C)c2n1C1CCCCN(C(=O)/C=C/CN(C)C)C1 (stereo not shown) [Example 17-62] | 0.006 | 0.14 | 2.5 | 0.234 | 
Cc1cccc2nc(NC(=O)c3ccn4cncc4c3)n(C3CCCCN(C(=O)/C=C/CN(C)C)C3)c12 (stereo not shown) [Example 17-63] | < 0.001 | 0.003 | 0.038 | 0.003 | 
C/C=C/C(=O)N1CC(n2c(NC(=O)c3cccc(C(F)(F)F)c3)nc3cc(C)ccc32)C1 [Example 17-101] | 0.193 | 0.99 |  |  | 
